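Following 48 hours of exposure in 96-well plates, responses at five concentrations were used to interpolate endpoints linearly. The concentration for 50% growth inhibition is given as GI50. TGI is the concentration that stops growth completely.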 A value given as a limit tells only on which side of the number the result lay.

Test systems include A549 NSCLC; BT-549 breast; COLO 205 colon; EKVX NSCLC; HCT-116 colon; HL-60(TB) leukemia; LOX IMVI melanoma; MCF7 breast; MDA-MB-231 breast; NCI-H23 lung; SK-MEL-5 melanoma; T-47D breast; UACC-257 melanoma; OVCAR-4 ovarian; SK-MEL-2 melanoma; SK-MEL-28 melanoma.
Common to all, as to assay: NCI anticancer screen, dose series, 48 h

Take `O=C1CC2(CCNCC2)C(=O)N1N1CCCC1`: the TGI in the test with A549 NSCLC, in the test with BT-549 breast, in the test on COLO 205 colon, with EKVX NSCLC, in the test on HCT-116 colon and in the test with HL-60(TB) leukemia was over 100 µM in each case. Also, the TGI with LOX IMVI melanoma, in the test with MCF7 breast, in the test on MDA-MB-231 breast, in the test with NCI-H23 lung, in the test with SK-MEL-5 melanoma and with T-47D breast was over 100 µM throughout. The TGI in the test with UACC-257 melanoma was over 100 µM.

With `COc1ccc2oc(C(=O)N3CC(CCl)c4ccc([N+](=O)[O-])cc43)cc2c1` (configuration not stated), the TGI in the test with BT-549 breast was over 100 µM; in the test with COLO 205 colon it was over 100 µM; in the test with EKVX NSCLC it was over 100 µM; with HCT-116 colon it was over 100 µM; in the test with LOX IMVI melanoma, over 100 µM; in the test on MDA-MB-231 breast it was 54.5 µM. Besides, the TGI in the test with NCI-H23 lung, in the test with OVCAR-4 ovarian, with SK-MEL-2 melanoma, in the test with SK-MEL-28 melanoma, in the test with SK-MEL-5 melanoma and in the test with T-47D breast was over 100 µM each time. Also, the TGI in the test on UACC-257 melanoma was over 100 µM.

`NS(=O)(=O)c1ccc(CNc2nc(-c3cccs3)nc3ccc(I)cc23)cc1`: the TGI in the test on A549 NSCLC is 28.5 µM; in the test on BT-549 breast, 27.8 µM; in the test on COLO 205 colon, 29.9 µM; with EKVX NSCLC, 29.3 µM; in the test on HCT-116 colon, 28.1 µM; in the test on HL-60(TB) leukemia it was over 100 µM. The TGI came to 29.3 µM in the test on LOX IMVI melanoma; 16.1 µM in the test with MCF7 breast; 38.4 µM in the test with NCI-H23 lung; 60.5 µM in the test with OVCAR-4 ovarian; 32.9 µM in the test with SK-MEL-2 melanoma; 40.2 µM in the test with SK-MEL-28 melanoma. The TGI was determined as 27 µM in the test with SK-MEL-5 melanoma, 1.81 µM in the test with T-47D breast and 27.5 µM in the test on UACC-257 melanoma. Moreover, the results for the GI50 with HL-60(TB) leukemia, with SK-MEL-2 melanoma and in the test on UACC-257 melanoma were 29.9 µM, 17.8 µM and 14 µM, respectively.

In the case of `CN(/N=C/C=N/N(C)C1=NCCCCN1)C1=NCCCCN1`, the TGI in the test on A549 NSCLC, with BT-549 breast, in the test with COLO 205 colon, in the test on EKVX NSCLC, in the test on HCT-116 colon and with LOX IMVI melanoma was over 100 µM each time. Further, the TGI in the test on MCF7 breast, in the test with MDA-MB-231 breast, in the test on NCI-H23 lung, in the test on OVCAR-4 ovarian, in the test with SK-MEL-28 melanoma and in the test with SK-MEL-5 melanoma was over 100 µM in each case. Further, the TGI in the test with T-47D breast and with UACC-257 melanoma was over 100 µM throughout.

`O=C(Cc1ccc(Cl)c(Cl)c1)N(CCc1ccc(Cl)c(Cl)c1)CCN1CCCC1`: the TGI in the test with A549 NSCLC was 4.25 µM; in the test on BT-549 breast, 7.04 µM; in the test with COLO 205 colon it was 3.38 µM; in the test on EKVX NSCLC, 3.78 µM; with HCT-116 colon, 3.09 µM; in the test with HL-60(TB) leukemia it was 3.35 µM. Besides, the TGI amounted to 3.27 µM in the test with MCF7 breast; 3.26 µM with MDA-MB-231 breast; 3.95 µM in the test on NCI-H23 lung; 5.28 µM in the test on OVCAR-4 ovarian; 3.36 µM in the test on SK-MEL-2 melanoma; 2.99 µM in the test on SK-MEL-28 melanoma. The figures for the TGI with SK-MEL-5 melanoma, in the test with T-47D breast and in the test on UACC-257 melanoma were 3.41 µM, 16.1 µM and 3.51 µM, respectively.

In the case of `COc1cccc(N2C(=O)CSC2c2cc(OC)c(OC)c(OC)c2)c1` (configuration not stated), the TGI in the test on A549 NSCLC was over 100 µM; with BT-549 breast it was 64.6 µM; in the test on COLO 205 colon it was 76.8 µM; in the test on EKVX NSCLC, over 100 µM; with HCT-116 colon it was over 100 µM; in the test with HL-60(TB) leukemia it was 98 µM. Further, the TGI in the test on LOX IMVI melanoma, with MCF7 breast, with MDA-MB-231 breast, in the test with NCI-H23 lung, in the test on OVCAR-4 ovarian and in the test on SK-MEL-2 melanoma was over 100 µM each time. Besides, the TGI with SK-MEL-28 melanoma, in the test on SK-MEL-5 melanoma and in the test with UACC-257 melanoma was over 100 µM in each case.

Consider `CC(=O)Oc1ccccc1C(=O)O`, for which the TGI with A549 NSCLC, with BT-549 breast, with COLO 205 colon, in the test with EKVX NSCLC, with HCT-116 colon and in the test with HL-60(TB) leukemia was over 100 µM each time. Moreover, the TGI in the test on LOX IMVI melanoma, in the test with MCF7 breast, in the test with NCI-H23 lung, in the test on OVCAR-4 ovarian, in the test with SK-MEL-2 melanoma and with SK-MEL-28 melanoma was over 100 µM throughout. The TGI with SK-MEL-5 melanoma, in the test on T-47D breast and in the test on UACC-257 melanoma was over 100 µM throughout.

Consider `CCOP(=O)(OCC)/C(C#N)=C/c1cccn1CC(C)C`, for which the TGI in the test on A549 NSCLC, with BT-549 breast, in the test on COLO 205 colon, with EKVX NSCLC, in the test with HCT-116 colon and in the test on LOX IMVI melanoma was over 100 µM each time. Also, the TGI in the test on MCF7 breast, in the test with MDA-MB-231 breast, in the test with NCI-H23 lung, in the test with SK-MEL-2 melanoma, in the test with SK-MEL-28 melanoma and in the test on SK-MEL-5 melanoma was over 100 µM each time. In addition, the TGI in the test on T-47D breast and in the test on UACC-257 melanoma was over 100 µM each time.

With `CCOC(=O)CCC(NC(=O)Cc1ccc(Oc2nc3ccccc3nc2-c2cccs2)cc1)C(=O)OCC` (configuration not stated), the TGI in the test on A549 NSCLC is 62.8 µM; in the test with BT-549 breast, over 100 µM; in the test on COLO 205 colon it was over 100 µM; with EKVX NSCLC it was over 100 µM; with HCT-116 colon, over 100 µM; with HL-60(TB) leukemia, over 100 µM. For the same molecule, the TGI was over 100 µM in the test on LOX IMVI melanoma; over 100 µM with MCF7 breast; 29.1 µM in the test with MDA-MB-231 breast; over 100 µM in the test with NCI-H23 lung; 94 µM with OVCAR-4 ovarian; over 100 µM in the test with SK-MEL-2 melanoma. Moreover, the TGI with SK-MEL-28 melanoma, in the test on SK-MEL-5 melanoma and in the test on UACC-257 melanoma was over 100 µM each time.

Source of the values: PubChem BioAssay (NCI).
